Laboratory results taken from US20230407373A1 (priority 2020, published 2023).
Where two headings read alike, the source gives them in different places.

Experiments:
Format in all cases: binding
[1] = system: SARS-CoV-2 gRNA and sgRNAs; conditions: for back-ground (unweighted spectral count of the protein in the control experiment): protein background of the control (e.g. no-probe) experiment; for target (unweighted spectral count in RNP capture): Probe II capture, LC-MS/MS LFQ; for background (unweighted spectral count in control): no-probe control pull-down, used as background for Probe II; for target (unweighted spectral count of the protein in the RNP capture experiment): LC-MS/MS label-free quantification, probe pool not given
[2] = system: gRNA of HCoV-OC43; conditions: for target (spectral count) / background (spectral count): type g_36_m, 36 hpi, Probe I; for target (spectral count): HCoV-OC43-infected HCT-8 cells; for background (spectral count): uninfected-probe control
[3] = system: HCoV-OC43 gRNA and sgRNA; conditions: for target (spectral count) / background (spectral count): type s_36_m, Probe II; for target (spectral count): HCoV-OC43-infected HCT-8 cells; for background (spectral count): uninfected-probe control; for target (unweighted spectral count): OC43 Probe II, infected cells
[4] = system: SARS-CoV-2 gRNA
[5] = type n_48_v: 48 hours post-infection, infected cells, OC43 Probe I, unweighted spectral count
[6] = type n_48_v: 48 hours post-infection, no-probe control on infected cells
[7] = 36 hpi, type n_36_v, tested against no-probe control, FDR<10%
[8] = type n_48_v, 48 hpi, OC43 Probe II capture on infected cells
[9] = type n_48_v, 48 hpi, no-probe control on infected cells
[10] = 12 hpi (type n_12_v), tested against no-probe control
[11] = 24 hpi (type n_24_v), tested against no-probe control
[12] = 24 hpi, type n_24_v, tested against no-probe control, FDR<10%

## PPIA
[1]
  back-ground (unweighted spectral count of the protein in the control experiment): 10
[2]; [5]
  target (spectral count, OC43 Probe I RNP capture): 10
[2]; [6]
  background (spectral count, no-probe control): 1
[3]; [7]
  target (unweighted spectral count, OC43 Probe II capture): 13
[3]; [8]
  target (unweighted spectral count, OC43 Probe II): 12
[3]; [9]
  background (unweighted spectral count, no-probe control): 1

## LSM14A
[1]
  target (unweighted spectral count in RNP capture): 8
  background (unweighted spectral count in control): 1

## XRCC5: host protein, UniProt P13010
[2]
  target (spectral count): 8
  background (spectral count): 1
[2]; [5]
  target (spectral count, OC43 Probe I RNP capture): 10
[2]; [6]
  background (spectral count, no-probe control): 1
[3]; [7]
  target (unweighted spectral count, OC43 Probe II capture): 7
[3]; [8]
  target (unweighted spectral count, OC43 Probe II): 12
[3]; [9]
  background (unweighted spectral count, no-probe control): 1
[3]; 36 hpi
  target (spectral count): 7
  background (spectral count): 1

## SUPT16H
[3]; [10]
  target (unweighted spectral count): 4

## KHDRBS1: host protein, UniProt Q07666
[2]
  target (spectral count): 13
  background (spectral count): 2
[3]; [7]
  target (unweighted spectral count, OC43 Probe II capture): 12
[3]; [11]
  target (unweighted spectral count): 10
[3]; [8]
  target (unweighted spectral count, OC43 Probe II): 14
[3]; [9]
  background (unweighted spectral count, no-probe control): 1
[3]; 36 hpi
  target (spectral count): 12
  background (spectral count): 2

## RP22L1
[1]
  target (unweighted spectral count in RNP capture): 7
  background (unweighted spectral count in control): 1

## ABCF1
[2]; [5]
  target (spectral count, OC43 Probe I RNP capture): 7
[2]; [6]
  background (spectral count, no-probe control): 1
[3]; [8]
  target (unweighted spectral count, OC43 Probe II): 5
[3]; [9]
  background (unweighted spectral count, no-probe control): 1

## MYH9
[1]
  target (unweighted spectral count of the protein in the RNP capture experiment): 9
  back-ground (unweighted spectral count of the protein in the control experiment): 2
[3]; [12]
  target (unweighted spectral count, OC43 Probe II capture): 6
[3]; [8]
  target (unweighted spectral count, OC43 Probe II): 9
[3]; [9]
  background (unweighted spectral count, no-probe control): 1

## EEF1G
[3]; [7]
  target (unweighted spectral count, OC43 Probe II capture): 4

## GEMIN5
[1]
  target (unweighted spectral count of the protein in the RNP capture experiment): 5
  back-ground (unweighted spectral count of the protein in the control experiment): 1

## HSPA1B
[3]; [7]
  target (unweighted spectral count, OC43 Probe II capture): 4

## ATP13A1
[3]; [7]
  target (unweighted spectral count, OC43 Probe II capture): 6

## EIF4A1
[1]
  target (unweighted spectral count in RNP capture): 8
  background (unweighted spectral count in control): 1
[3]; [11]
  target (unweighted spectral count): 5

## PPP1CA
[3]; [7]
  target (unweighted spectral count, OC43 Probe II capture): 4

## LARP4B
[1]
  target (unweighted spectral count of the protein in the RNP capture experiment): 6
  back-ground (unweighted spectral count of the protein in the control experiment): 1
[3]; [11]
  target (unweighted spectral count): 6
[3]; [8]
  target (unweighted spectral count, OC43 Probe II): 6
[3]; [9]
  background (unweighted spectral count, no-probe control): 1

## PRRC2A: host protein, UniProt P48634
[2]
  target (spectral count): 12
  background (spectral count): 1
[2]; [5]
  target (spectral count, OC43 Probe I RNP capture): 9
[2]; [6]
  background (spectral count, no-probe control): 1
[3]; [7]
  target (unweighted spectral count, OC43 Probe II capture): 10
[3]; [11]
  target (unweighted spectral count): 8
[3]; [8]
  target (unweighted spectral count, OC43 Probe II): 9
[3]; [9]
  background (unweighted spectral count, no-probe control): 1

## GAPDH
[1]
  target (unweighted spectral count in RNP capture): 12
  background (unweighted spectral count in control): 1

## HIST1H1C
[3]; [10]
  target (unweighted spectral count): 7

## FAM125A
[1]
  target (unweighted spectral count in RNP capture): 97

## SNRNP70: host protein, UniProt P08621
[2]
  target (spectral count): 9
  background (spectral count): 1
[3]; [8]
  target (unweighted spectral count, OC43 Probe II): 8
[3]; [9]
  background (unweighted spectral count, no-probe control): 2

## HNRNPK: host protein, UniProt P61978
[1]
  target (unweighted spectral count in RNP capture): 52
  background (unweighted spectral count in control): 1
[2]
  target (spectral count): 65
  background (spectral count): 16
[2]; [5]
  target (spectral count, OC43 Probe I RNP capture): 64
[2]; [6]
  background (spectral count, no-probe control): 8
[3]; [7]
  target (unweighted spectral count, OC43 Probe II capture): 66
[3]; [11]
  target (unweighted spectral count): 28
[3]; [8]
  target (unweighted spectral count, OC43 Probe II): 63
[3]; [9]
  background (unweighted spectral count, no-probe control): 8
[3]; 36 hpi
  target (spectral count): 66
  background (spectral count): 12

## HSPB1
[4]; Probe I capture, […], LC-MS/MS LFQ
  target (unweighted spectral count in RNP capture): 5
[4]; no-probe control pull-down, used as background for Probe I
  background (unweighted spectral count in control): 1

## KRT16
[3]; [11]
  target (unweighted spectral count): 22

## SRSF1
[1]
  target (unweighted spectral count in RNP capture): 8
  background (unweighted spectral count in control): 1
[2]
  background (spectral count, no-probe control): 1
  target (spectral count, OC43 Probe I RNP capture): 17
[3]
  background (unweighted spectral count, no-probe control): 1
  target (unweighted spectral count, OC43 Probe II capture): 14
  target (unweighted spectral count, OC43 Probe II): 20

## SSRP1
[3]; [12]
  target (unweighted spectral count, OC43 Probe II capture): 4

## C19orf66
[3]; [7]
  target (unweighted spectral count, OC43 Probe II capture): 4
[3]; [8]
  target (unweighted spectral count, OC43 Probe II): 6
[3]; [9]
  background (unweighted spectral count, no-probe control): 1

## TUBB4B
[1]
  target (unweighted spectral count of the protein in the RNP capture experiment): 6
  back-ground (unweighted spectral count of the protein in the control experiment): 1

## LARP4
[1]
  target (unweighted spectral count in RNP capture): 10
  background (unweighted spectral count in control): 1
[3]; [7]
  target (unweighted spectral count, OC43 Probe II capture): 4

## RBPMS
[1]
  target (unweighted spectral count of the protein in the RNP capture experiment): 5
  back-ground (unweighted spectral count of the protein in the control experiment): 1
